Values of other authors in US20100183739A1, “Treatment and prevention of systemic bacterial infections in plants using antimicrobial metal compositions” (priority 2009, published 2010).

System: bacteria
Details: Appl Environ Microbiol. 2008; 74(7): 2171-2178

[Ag+] [silver ion]
silver ion concentration for inhibition of bacterial growth: below 5 ppm
